Reference: US8299034B2, “Nutritional compositions for promotion of bone growth and maintenance of bone health comprising extracts of for example rosemary or caraway” (Nestec S.A., priority 2008, dated 2012)

What was measured:
bone formation = assay: Bone formation bioassays, assay not specified (anabolic potential)
From the text: (§1) The following bioassays were used for bone formation analysis • BMP-2 gene reporter assay (high throughput screen) • Alkaline phosphatase in osteoblast cells • Calvaria organ culture in vitro, bone formation • Injection into calvaria in vivo, bone formation.
(§2) For example, extracts were screened for bone formation by a high throughput gene reporter assay for BMP-2 followed by an alkaline phosphatase assay and an organ culture model and finally by injection into mice calvaria in vivo. Subfractions of positive extracts and/or pure compounds were further tested for activity.
(§3) The rosemary plant extracts and the pure compounds were tested in an osteoblast/osteoclast co-culture system.

osteoblast cells = assay: Alkaline phosphatase assay in osteoblast cells; format: cell-based
Protocol: as §1
(§4) The screening for bone formation was carried out in several stages: • (i) BMP-2 high throughput gene reporter assay of non-hydrolyzed MeOH/H2O extracts (1a) and corresponding glycosidase hydrolyzed extract in ethyl acetate (1b). […] Extracts were assessed in a 4-day in vitro neonatal murine calvarial assay. Bones were incubated with the extracts for the entire 4 days. • (vi) Resorption activity monitored by measuring the amount of type I collagen released in the media as osteoclasts digest bone.

BMP-2 = BMP-2 high throughput gene reporter assay; format: cell-based
From the text: as §1
as §2, with “activity. Analysis of the chemical composition of one active extract was performed in order to determine the active compounds.” for “activity.”
as §4

[1] = system: Osteopontin (OPN) mRNA in hPOBtert cells; assay: Osteopontin (OPN) mRNA induction by real-time PCR; format: cell-based, human; conditions: 48 h, normalised to β-actin
Protocol: Cell culture—HPOBTert osteoblasts were seeded on collagen-coated plates and grown in MEM Eagle α Modification medium supplemented with 10% fetal bovine serum, 1% L-glutamine and penicillin/streptomycin, 1 mM β-glycerolphosphate and 50 μg/ml ascorbic acid in a humidified atmosphere of 5% CO2, and 95% air at 37° C. When carnosol and inhibitors were added, an equivalent amount of Me2SO was used as a vehicle control.
Analysis of mRNA levels by Real-Time PCR—Total cellular RNA was extracted using the NucleoSpin RNA II kit (Macherey-Nagel, Switzerland). Equal amounts (1 μg) of RNA from the different treatments were reverse-transcribed using the First Strand cDNA Synthesis kit for RT-PCR (Roche, Mannheim, Germany). For each sample, 2 μl 10× reaction buffer, 4 μl 25 mM MgCl2, 2 μl nucleotide mix, 2 μl random primers, 1 μl RNAse inhibitor and 0.4 μl AMV reverse transcriptase from the kit were added to the sample. The reverse transcriptase was performed at the following thermal cycling conditions (25° C. for 10 min, 42° C. for 60 min, and 75° C. for 5 min) using the PTC-100™ […]).
Real-time Quantitative PCR—Quantitative PCR was performed in 25 μl in triplicates. This consisted of 12.5 μl of Taqman 2× Universal PCR Master Mix, 1.25 μl Assay-on-Demand primers and probes (Applied Biosystems, USA) and 6.25 μl RNAse free water. […]

NQO1 in hPOBtert cells = assay: NQO1 induction, immunoblot; format: cell-based, human
Protocol: Preparation of cytoplasmic extracts—hPOBtert cells were washed two times with cold phosphate-buffered saline and harvested with lysis buffer (1% Triton X-100, 20 mM Tris/HCL pH 8, 137 mM Nacl, 10% Glycerol, 2 mM EDTA pH 8, and freshly added proteinase inhibitors: 1 mM phenylmethylsulfonylfluoride, 0.15 U/ml Aprotinin, 10 μg/ml Leupeptide and 10 μg/ml Pepstatin). The samples were centrifuged at 13000 rpm, 4° C. for 5 min and the supernatant transferred to a fresh tube. The protein concentration was determined using the BioRad protein assay. Approximately 50 μg of each sample were mixed with a suitable volume of sample buffer, denatured for 5 min at 95° C. together with 5 μl protein standard, chilled on ice, and loaded on a 10% ready gel, and submitted to immunoblot analysis using anti-NQO1 antibodies.
Immunoblotting—50 μg of protein cell lysate were resolved by SDS-PAGE. After electrophoresis, proteins were transferred to a PVDF membrane (Invitrogen) according to the manufacturer's protocol. Membranes probed for OPN and NQO1 were blocked and probed in 5% milk in Tris-buffered saline/Tween (20 mM Tris base, pH 7.6, 137 mM, 0.1% Tween 20). The blots were visualised by chemiluminescence development, Western blotting detection system (Amersham Biosciences).
Antibodies—The NQO1 (sc-16464)-specific antibodies were purchased from Santa Cruz Biotechnologies Inc (Santa Cruz, Calif.). […]

OPG/RANKL = assay: Osteoblast/osteoclast co-culture system, OPG/RANKL regulation; format: cell-based
Protocol: as §3

[2] = system: neonatal murine calvarial bones; assay: Calvaria organ culture in vitro, bone formation; format: cell-based; conditions: phenolics tested at 1-10 μM
Protocol: as §1, §4

For `COc1c(OC2OC(COC(=O)C=Cc3ccc(O)cc3)C(O)C(O)C2O)cc2oc(-c3ccc(O)c(O)c3)cc(=O)c2c1O` (stereo not shown) [6″-Coumaroylnepitrin], which anabolic potential (bone formation) is on record?
Its anabolic potential is “anabolic potential”.

How did the anabolic potential (bone formation) turn out when `COc1cc(C=CC(=O)OCC2OC(Oc3cc4oc(-c5ccc(O)c(O)c5)cc(=O)c4c(O)c3OC)C(O)C(O)C2O)ccc1O` (stereo not shown) [6″-Feruloylnepitrin] was run?
Its anabolic potential is “anabolic potential”.

What does the source list for `COc1ccc(-c2cc(=O)c3c(O)cc(O)cc3o2)cc1` [Acacetin]?
ALP activity induction (osteoblast cells; 5-10 μM): 2X; BMP-2 induction (BMP-2; 5-10 μM): 5.5X

For `CC(C)c1cc2c(c(O)c1O)[C@@]13CCCC(C)(C)[C@@H]1C[C@@H]2OC3=O` [Carnosol], which “OPN mRNA levels” value [1] is on record?
Its value is “induce OPN expression dose-dependently”.

What about the NQO1 expression (NQO1 in hPOBtert cells) of the same compound?
Its NQO1 expression is “induces the expression of the phase II enzyme NQO1”.

And the “regulation of OPG/RANKL” value (OPG/RANKL)?
Its value is “activity for regulation of the key cytokines controlling bone remodeling”.

And the ALP activity induction (osteoblast cells; 2.5-10 μM)?
The ALP activity induction was 2X.

What about the “Bone formation in organ culture” value [2] of the same compound?
Its value is “Yes”.

What about the BMP-2 induction (BMP-2; 2.5-10 μM) of the same compound?
Its BMP-2 induction is 4.5-7X.

And the anabolic potential (bone formation)?
Its anabolic potential is “anabolic potential”.

Which “regulation of OPG/RANKL” value (OPG/RANKL) does the source give for `COc1c(O)cc2oc(-c3ccc(O)c(O)c3)cc(=O)c2c1O` [Eupafolin] here?
The value was “activity for regulation of the key cytokines controlling bone remodeling”.

And the ALP activity induction (osteoblast cells; 5 μM)?
The ALP activity induction was 2 X.

What about the ALP activity induction (osteoblast cells; 10 μM) of the same compound?
Its ALP activity induction is 4 X.

What about the “Bone formation in organ culture” value [2] of the same compound?
The value was “Yes”.

What about the BMP-2 induction (BMP-2; 2.5-10 μM) of the same compound?
Its BMP-2 induction is 3-8X.

And the anabolic potential (bone formation)?
Its anabolic potential is “anabolic potential”.

`COc1cc(O)c2c(=O)cc(-c3ccc(O)cc3)oc2c1` [Genkwanin] was tested. Which ALP activity induction (osteoblast cells; 10 μM) did it give?
Its ALP activity induction is 1.5X.

And the BMP-2 induction (BMP-2; 5 μM)?
Its BMP-2 induction is 4X.

What does the source list for `O=c1c(O)c(-c2ccc(O)cc2)oc2cc(O)cc(O)c12` [Kaempferol]?
ALP activity induction (osteoblast cells; 2.5-10 μM): 2-4X; Bone formation in organ culture [2]: Yes; BMP-2 induction (BMP-2; 1-10 μM): 2.5X; anabolic potential (bone formation): anabolic potential

What does the source list for `O=c1cc(-c2ccc(O)cc2)oc2cc(O)c(O)c(O)c12` [Scutellarein]?
ALP activity induction (osteoblast cells; 10 μM): 2X; BMP-2 induction (BMP-2; 5, 10 μM): 3-4X
